According to PubChem BioAssay (NCI):
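Dose response: 5 concentrations. Exposure: 48 h. Format: 96-well plates. Endpoint: linear interpolation; highest concentration if not reached. Definition used: TGI = concentration required for complete inhibition of growth.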

Columns and labels:
Assay in all cases: NCI tumour cell line growth inhibition, 48 h
786-0 renal = system: 786-0 renal
A549 NSCLC = system: A549 NSCLC
ACHN renal = system: ACHN renal
BT-549 breast = system: BT-549 breast
CAKI-1 renal = system: CAKI-1 renal
CCRF-CEM leukemia = system: CCRF-CEM leukemia
COLO 205 colon = system: COLO 205 colon
DU-145 prostate = system: DU-145 prostate
EKVX NSCLC = system: EKVX NSCLC
HCC-2998 colon = system: HCC-2998 colon
HCT-116 colon = system: HCT-116 colon
HCT-15 colon = system: HCT-15 colon
HL-60(TB) leukemia = system: HL-60(TB) leukemia
HOP-62 NSCLC = system: HOP-62 NSCLC
HS 578T breast = system: HS 578T breast
HT29 colon = system: HT29 colon
IGROV1 ovarian = system: IGROV1 ovarian
K-562 leukemia = system: K-562 leukemia
KM12 colon = system: KM12 colon
LOX IMVI melanoma = system: LOX IMVI melanoma
M14 melanoma = system: M14 melanoma
MALME-3M melanoma = system: MALME-3M melanoma
MCF7 breast = system: MCF7 breast
MDA-MB-231 breast = system: MDA-MB-231 breast
MDA-MB-435 = system: MDA-MB-435
MDA-N = system: MDA-N
MOLT-4 leukemia = system: MOLT-4 leukemia
NCI-H226 lung = system: NCI-H226 lung
NCI-H23 lung = system: NCI-H23 lung
NCI-H460 lung = system: NCI-H460 lung
NCI-H522 lung = system: NCI-H522 lung
NCI/ADR-RES ovarian = system: NCI/ADR-RES ovarian
OVCAR-3 ovarian = system: OVCAR-3 ovarian
OVCAR-4 ovarian = system: OVCAR-4 ovarian
OVCAR-5 ovarian = system: OVCAR-5 ovarian
OVCAR-8 ovarian = system: OVCAR-8 ovarian
PC-3 prostate = system: PC-3 prostate
RPMI-8226 leukemia = system: RPMI-8226 leukemia
RXF 393 renal = system: RXF 393 renal
SF-268 CNS = system: SF-268 CNS
SF-295 CNS = system: SF-295 CNS
SF-539 CNS = system: SF-539 CNS
SK-MEL-2 melanoma = system: SK-MEL-2 melanoma
SK-MEL-28 melanoma = system: SK-MEL-28 melanoma
SK-MEL-5 melanoma = system: SK-MEL-5 melanoma
SK-OV-3 ovarian = system: SK-OV-3 ovarian
SN12C renal = system: SN12C renal
SNB-19 CNS = system: SNB-19 CNS
SNB-75 CNS = system: SNB-75 CNS
SR leukemia = system: SR leukemia
SW-620 colon = system: SW-620 colon
T-47D breast = system: T-47D breast
TK-10 renal = system: TK-10 renal
U251 CNS = system: U251 CNS
UACC-257 melanoma = system: UACC-257 melanoma
UACC-62 melanoma = system: UACC-62 melanoma
UO-31 renal = system: UO-31 renal
HOP-92 NSCLC = system: HOP-92 NSCLC

SMILES: NC1CSc2ccccc2NC1=O (stereo not given)
- TGI (786-0 renal): > 100 µM
- TGI (A549 NSCLC): > 100 µM
- TGI (ACHN renal): > 100 µM
- TGI (BT-549 breast): > 100 µM
- TGI (CAKI-1 renal): > 100 µM
- TGI (CCRF-CEM leukemia): > 100 µM
- TGI (COLO 205 colon): > 100 µM
- TGI (DU-145 prostate): > 100 µM
- TGI (EKVX NSCLC): > 100 µM
- TGI (HCC-2998 colon): > 100 µM
- TGI (HCT-116 colon): > 100 µM
- TGI (HCT-15 colon): > 100 µM
- TGI (HL-60(TB) leukemia): > 100 µM
- TGI (HOP-62 NSCLC): > 100 µM
- TGI (HS 578T breast): > 100 µM
- TGI (HT29 colon): > 100 µM
- TGI (IGROV1 ovarian): > 100 µM
- TGI (K-562 leukemia): > 100 µM
- TGI (KM12 colon): > 100 µM
- TGI (LOX IMVI melanoma): > 100 µM
- TGI (M14 melanoma): > 100 µM
- TGI (MALME-3M melanoma): > 100 µM
- TGI (MCF7 breast): > 100 µM
- TGI (MDA-MB-231 breast): > 100 µM
- TGI (MDA-MB-435): > 100 µM
- TGI (MDA-N): > 100 µM
- TGI (MOLT-4 leukemia): > 100 µM
- TGI (NCI-H226 lung): > 100 µM
- TGI (NCI-H23 lung): > 100 µM
- TGI (NCI-H460 lung): > 100 µM
- TGI (NCI-H522 lung): > 100 µM
- TGI (NCI/ADR-RES ovarian): > 100 µM
- TGI (OVCAR-3 ovarian): > 100 µM
- TGI (OVCAR-4 ovarian): > 100 µM
- TGI (OVCAR-5 ovarian): > 100 µM
- TGI (OVCAR-8 ovarian): > 100 µM
- TGI (PC-3 prostate): > 100 µM
- TGI (RPMI-8226 leukemia): > 100 µM
- TGI (RXF 393 renal): > 100 µM
- TGI (SF-268 CNS): > 100 µM
- TGI (SF-295 CNS): > 100 µM
- TGI (SF-539 CNS): > 100 µM
- TGI (SK-MEL-2 melanoma): > 100 µM
- TGI (SK-MEL-28 melanoma): > 100 µM
- TGI (SK-MEL-5 melanoma): > 100 µM
- TGI (SK-OV-3 ovarian): > 100 µM
- TGI (SN12C renal): > 100 µM
- TGI (SNB-19 CNS): > 100 µM
- TGI (SNB-75 CNS): > 100 µM
- TGI (SR leukemia): > 100 µM
- TGI (SW-620 colon): > 100 µM
- TGI (T-47D breast): > 100 µM
- TGI (TK-10 renal): > 100 µM
- TGI (U251 CNS): > 100 µM
- TGI (UACC-257 melanoma): > 100 µM
- TGI (UACC-62 melanoma): > 100 µM
- TGI (UO-31 renal): > 100 µM

SMILES: O=C(OCCN1CCCCCC1)C(c1ccsc1)C1CCCCC1 (stereo not given)
- TGI (786-0 renal): 31.8 µM
- TGI (A549 NSCLC): 44.5 µM
- TGI (ACHN renal): 33.1 µM
- TGI (BT-549 breast): 29.6 µM
- TGI (CAKI-1 renal): 29.4 µM
- TGI (CCRF-CEM leukemia): 40.2 µM
- TGI (COLO 205 colon): 22.7 µM
- TGI (DU-145 prostate): 33.2 µM
- TGI (EKVX NSCLC): 35.7 µM
- TGI (HCC-2998 colon): 31.5 µM
- TGI (HCT-116 colon): 29.6 µM
- TGI (HCT-15 colon): 30.8 µM
- TGI (HL-60(TB) leukemia): 70.6 µM
- TGI (HOP-62 NSCLC): 29.9 µM
- TGI (HOP-92 NSCLC): 31.2 µM
- TGI (HS 578T breast): 37.8 µM
- TGI (HT29 colon): 31.6 µM
- TGI (IGROV1 ovarian): 24.2 µM
- TGI (KM12 colon): 32.1 µM
- TGI (LOX IMVI melanoma): 32.2 µM
- TGI (M14 melanoma): 32.8 µM
- TGI (MALME-3M melanoma): 28.2 µM
- TGI (MCF7 breast): 33 µM
- TGI (MDA-MB-231 breast): 31.8 µM
- TGI (MDA-MB-435): 32.3 µM
- TGI (MDA-N): 28.4 µM
- TGI (MOLT-4 leukemia): 50.6 µM
- TGI (NCI-H23 lung): 39 µM
- TGI (NCI-H460 lung): 33 µM
- TGI (NCI/ADR-RES ovarian): 31.4 µM
- TGI (OVCAR-3 ovarian): 28.8 µM
- TGI (OVCAR-5 ovarian): 32.5 µM
- TGI (OVCAR-8 ovarian): 34.5 µM
- TGI (PC-3 prostate): 44.9 µM
- TGI (RPMI-8226 leukemia): 32.1 µM
- TGI (SF-268 CNS): 36.8 µM
- TGI (SF-295 CNS): 32.4 µM
- TGI (SF-539 CNS): 30.8 µM
- TGI (SK-MEL-28 melanoma): 36.2 µM
- TGI (SK-OV-3 ovarian): 31.8 µM
- TGI (SN12C renal): 32.8 µM
- TGI (SNB-19 CNS): 40.4 µM
- TGI (SNB-75 CNS): 32.2 µM
- TGI (SR leukemia): 57.2 µM
- TGI (SW-620 colon): 33.4 µM
- TGI (T-47D breast): 17.8 µM
- TGI (TK-10 renal): 33.5 µM
- TGI (U251 CNS): 32.1 µM
- TGI (UACC-257 melanoma): 34.5 µM
- TGI (UO-31 renal): 26.9 µM

SMILES: CN(C)c1ccc(/C=C2\Oc3ccccc3C2=O)cc1
- TGI (786-0 renal): > 100 µM
- TGI (A549 NSCLC): > 100 µM
- TGI (ACHN renal): > 100 µM
- TGI (BT-549 breast): > 100 µM
- TGI (CAKI-1 renal): > 100 µM
- TGI (CCRF-CEM leukemia): > 100 µM
- TGI (COLO 205 colon): > 100 µM
- TGI (DU-145 prostate): > 100 µM
- TGI (EKVX NSCLC): > 100 µM
- TGI (HCC-2998 colon): > 100 µM
- TGI (HCT-116 colon): > 100 µM
- TGI (HCT-15 colon): > 100 µM
- TGI (HL-60(TB) leukemia): > 100 µM
- TGI (HOP-62 NSCLC): > 100 µM
- TGI (HS 578T breast): > 100 µM
- TGI (HT29 colon): > 100 µM
- TGI (IGROV1 ovarian): > 100 µM
- TGI (K-562 leukemia): > 100 µM
- TGI (KM12 colon): > 100 µM
- TGI (M14 melanoma): > 100 µM
- TGI (MCF7 breast): > 100 µM
- TGI (MDA-MB-231 breast): > 100 µM
- TGI (MDA-MB-435): > 100 µM
- TGI (MDA-N): > 100 µM
- TGI (MOLT-4 leukemia): > 100 µM
- TGI (NCI-H226 lung): > 100 µM
- TGI (NCI-H23 lung): > 100 µM
- TGI (NCI-H460 lung): > 100 µM
- TGI (NCI-H522 lung): > 100 µM
- TGI (NCI/ADR-RES ovarian): > 100 µM
- TGI (OVCAR-3 ovarian): > 100 µM
- TGI (OVCAR-4 ovarian): > 100 µM
- TGI (OVCAR-8 ovarian): > 100 µM
- TGI (PC-3 prostate): > 100 µM
- TGI (RPMI-8226 leukemia): > 100 µM
- TGI (RXF 393 renal): > 100 µM
- TGI (SF-268 CNS): > 100 µM
- TGI (SF-295 CNS): > 100 µM
- TGI (SF-539 CNS): > 100 µM
- TGI (SK-MEL-28 melanoma): > 100 µM
- TGI (SK-MEL-5 melanoma): > 100 µM
- TGI (SK-OV-3 ovarian): > 100 µM
- TGI (SN12C renal): > 100 µM
- TGI (SNB-19 CNS): > 100 µM
- TGI (SNB-75 CNS): > 100 µM
- TGI (SR leukemia): > 100 µM
- TGI (SW-620 colon): > 100 µM
- TGI (T-47D breast): > 100 µM
- TGI (TK-10 renal): > 100 µM
- TGI (U251 CNS): > 100 µM
- TGI (UACC-257 melanoma): > 100 µM
- TGI (UACC-62 melanoma): > 100 µM
- TGI (UO-31 renal): > 100 µM
